The source of these data is patent US12065445B2, “CDK2 inhibitors and methods of using the same” (Cedilla Therapeutics, Inc., priority 2021, dated 2024).

For one assay, the target named is T1, CDK2/Cyclin E1 (Homo sapiens, UniProt P24941).
T1 construct: purchased Eurofins 14-475
As to the kind of experiment: CDK2/Cyclin E1 Caliper Assay (LabChip EZ Reader mobility shift). The format is biochemical. Particulars: read-out: Caliper Assay (CDK2/CCNE1): IC50. On the procedure:
Inhibition of CDK2/Cyclin E1 activity in the presence of compounds of the present disclosure was evaluated using a Caliper LabChip® EZ Reader mobility shift assay. In the assay, CDK2/Cyclin E1 (Eurofins, 14-475) catalyzed the phosphorylation of a fluorescently tagged peptide 5-FAM-QSPKKG-CONH2 (PerkinElmer, FL Peptide 18) which induced a difference in capillary electrophoresis mobility. The peptide substrate and product were measured, and the conversion ratio was used to determine the inhibition (as % activity and IC50 values) of CDK2/Cyclin E1. Reactions contained 50 mM HEPES pH 7.5, 10 mM MgCl2, 1 mM EDTA, 2 mM DTT, 0.01% Brij35, 0.5 mg/mL BSA, 0.1% DMSO, 2.5 nM CDK2/Cyclin E1, 100 μM ATP, and 1.5 μM fluorescent peptide substrate.
Dose titrations of inhibitors in 100% DMSO were combined with 3.25 nM CDK2/Cyclin E1 and 130 μM of ATP in reaction buffer. The mixtures were incubated for 30 minutes before the addition of fluorescent peptide substrate to initiate the kinase reaction. The final conditions were 2.5 nM CDK2/Cyclin E1, 100 μM ATP, and 1.5 μM fluorescent peptide. The reactions were stopped after 100 minutes with the addition of EDTA (400 mM final EDTA concentration). The stopped reactions were analyzed on a Caliper LabChip® EZ Reader II. The conversion ratios were normalized to yield % activity, plotted against compound concentration, and fit to a four-parameter equation to determine the IC50 for each compound.

The next assay relates to Kuramochi cells. The assay is described as follows: BrdU Cell Proliferation Assay. Type of assay: cell-based. The note with it: read-out: BrdU - KURAMOCHI.1: IC50. An outline of the steps:
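Kuramochi cells were seeded at 2,000 cells/well, adhered overnight, then treated with a 10-point, 3-fold compound dilution series for 4 days. Proliferation was measured by a 1-hour BrdU pulse, anti-BrdU peroxidase colorimetric ELISA and 450 nm absorbance. Values were background-subtracted and normalized to DMSO wells.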

Assay [1] has as its system Kuramochi cells labeled with mApple-H2B. The assay is described as follows: IncuCyte Cell Proliferation Assay. Type of assay: cell-based. Particulars: 72 h. An outline of the steps:
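Cells imaged at 0 and 72 h after compound treatment (10 points, ½ log dilution, 20 μM top), with fluorescent nuclei counted. Fold change in count was normalized to DMSO wells and fitted to dose-response curves to give GI50.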

As to `CNC(=O)[C@H](COCc1ccccc1)NC(=O)[C@H]1CN(C(=O)c2cnn(Cc3ccccc3)c2)CC12CN(C(=O)C1(C(F)(F)F)CC1)C2` [I-113B], the IC50 on CDK2/Cyclin E1 and in the assay with Kuramochi cells was more than 10 µM each time.
Take `CNC(=O)[C@@H](NC(=O)[C@@H]1CN(C(=O)c2cnco2)CC12CN(C(=O)[C@H]1CC1(C)C)C2)[C@@H](C)OCc1ccccc1` [I-39A]: the IC50 is 0.1 to 1 µM at CDK2/Cyclin E1 and more than 10 µM with Kuramochi cells.
In the same order, the values of `CNC(=O)[C@@H](NC(=O)[C@H]1CN(CC2CCOCC2)CC12CN(C(=O)[C@H]1CC1(C)C)C2)[C@@H](C)OCc1ccccc1` [I-68B] are more than 10 µM and more than 10 µM.
Taken in the same sequence, the figures for `CNC(=O)[C@@H](NC(=O)[C@@H]1CN(Cc2cccnc2)CC12CN(C(=O)[C@H]1CC1(C)C)C2)[C@@H](C)OCc1ccccc1` [I-49A] were more than 10 µM and more than 10 µM.
Taken in the same sequence, the figures for `C[C@@H](OCC1CCCCC1)[C@H](NC(=O)[C@@H]1CN(C(=O)c2cnn(Cc3ccccc3)c2)CC12CN(C(=O)[C@H]1CC1(C)C)C2)C(=O)N1CCC[C@H](N)C1` [I-150A] were not above 0.01 µM and 0.5 to 5 µM.
`CNC(=O)[C@@H](NC(=O)[C@@H]1CN(C(=O)c2cnn(Cc3ccccc3)c2)CC12CN(C(=O)C1(C(C)C)CC1)C2)[C@@H](C)OCc1ccccc1` [I-109A]: the IC50 at CDK2/Cyclin E1 and in the assay on Kuramochi cells was more than 10 µM each time.
With `C[C@@H]1C[C@H](C)CN(C(=O)[C@@H](NC(=O)[C@H]2CN(C(=O)c3cn[nH]c3)CC23CN(C(=O)[C@H]2CC2(C)C)C3)[C@@H](C)OCC2CCCCC2)C1` [I-173B], the IC50 is 1 to 10 µM on CDK2/Cyclin E1 and more than 10 µM with Kuramochi cells.
For the molecule `C[C@@H](OCc1ccccc1)[C@H](NC(=O)[C@@H]1CN(C(=O)c2cnn(Cc3ccccc3)c2)CC12CN(C(=O)[C@H]1CC1(C)C)C2)C(N)=O` [I-176A], the IC50 in the assay with Kuramochi cells is more than 10 µM; in assay [1], more than 20 µM.
In the same order, the values of `C[C@@H](OCC1CCCCC1)[C@@H](COCC1CCCCC1)NC(=O)[C@@H]1CN(C(=O)c2cncs2)CC12CN(C(=O)[C@H]1CC1(C)C)C2` [I-282] are not above 0.5 µM and not above 0.5 µM.
Regarding `C[C@@H](OCc1ccccc1)[C@H](NC(=O)C1CN(C(=O)c2cnn(Cc3ccccc3)c2)CC12CN(C(=O)C1CC1(C)C)C2)C(=O)NCCCCCN` (some centres unmarked) [I-57], the IC50 was 0.01 to 0.1 µM at CDK2/Cyclin E1 and more than 10 µM with Kuramochi cells.
As for `CNC(=O)[C@@H](NC(=O)[C@@H]1CN(C(=O)c2scnc2C(F)(F)F)CC12CN(C(=O)[C@H]1CC1(C)C)C2)[C@@H](C)OCC1CCCCC1` [I-163A], the IC50 in the assay with Kuramochi cells was more than 10 µM; in assay [1], more than 20 µM.
For `C[C@@H](OCC1CCCCC1)[C@H](NC(=O)[C@H]1CN(C(=O)c2cnn(Cc3ccccc3)c2)CC12CN(C(=O)[C@H]1CC1(C)C)C2)C(=O)N1CCC[C@H](N)C1` [I-150B], the results for the IC50 at CDK2/Cyclin E1 and in the assay with Kuramochi cells were 1 to 10 µM and more than 10 µM, respectively.
Taken in the same sequence, the figures for `C[C@@H](OCC1CCCCC1)[C@H](NC(=O)[C@H]1CN(C(=O)c2cncs2)CC12CN(C(=O)[C@H]1CC1(C)C)C2)C(=O)N1CCC(F)(F)CC1` [I-192B] were 1 to 10 µM and more than 10 µM.
In the case of `CNC(=O)[C@@H](NC(=O)[C@@H]1CN(C(=O)c2cnc(CC3CC3)s2)CC12CN(C(=O)[C@H]1CC1(C)C)C2)[C@@H](C)OCC1CCCCC1` [I-177A], the values for the IC50 (in the assay with Kuramochi cells; in assay [1]) were 0.5 to 5 µM and 5 to 20 µM, respectively.
With `CNC(=O)[C@@H](NC(=O)[C@@H]1CN(C(=O)c2sc(COC)nc2C)CC12CN(C(=O)[C@H]1CC1(C)C)C2)[C@@H](C)OCC1CCCCC1` [I-162A], the IC50 with Kuramochi cells was 0.5 to 5 µM; in assay [1] it was 5 to 20 µM.
For the molecule `CNC(=O)[C@@H](NC(=O)[C@@H]1CN(C(=O)c2cnn(Cc3ccccc3)c2)CC12CN(CC(=O)O)C2)[C@@H](C)OCC1CCCCC1` [I-294, 2-((S)-6-(1-benzyl-1H-pyrazole-4-carbonyl)-8-(((2S,3R)-3-(cyclohexylmethoxy)-1-(methylamino)-1-oxobutan-2-yl)carbamoyl)-2,6-diazaspiro[3.4]octan-2-yl)acetic acid], the IC50 in the assay with Kuramochi cells is more than 10 µM; in assay [1], more than 20 µM.
For `C[C@@H](OCC1(C(F)(F)F)CC1)[C@H](NC(=O)[C@@H]1CN(C(=O)c2cncs2)CC12CN(C(=O)[C@H]1CC1(C)C)C2)C(=O)N1CCC(F)(F)CC1` [I-287], the IC50 with Kuramochi cells was more than 10 µM; in assay [1], 5 to 20 µM.
Regarding `CNC(=O)C(NC(=O)[C@@H]1CN(C(=O)c2cncs2)CC12CN(C(=O)[C@H]1CC1(C)C)C2)c1cccc(N2CCCCC2)n1` (some centres unmarked) [I-432], the IC50 with Kuramochi cells was more than 10 µM; in assay [1] it was more than 20 µM.
In the same order, the values of `COC[C@H]1CCCN(C(=O)[C@@H](NC(=O)[C@@H]2CN(C(=O)c3cncs3)CC23CN(C(=O)[C@H]2CC2(C)C)C3)[C@@H](C)OC[C@H]2CC[C@H](OC)CC2)C1` [I-402] are 0.5 to 5 µM and 0.5 to 5 µM.
Taken in the same sequence, the figures for `CNC(=O)[C@@H](NC(=O)[C@@H]1CN(C(=O)c2cnn(Cc3ccccc3)c2)CC12CN(C(=O)[C@H]1CC1(C)C)C2)[C@@H](C)OC[C@H]1CC[C@H](OC)CC1` [I-403] were more than 10 µM and more than 20 µM.
For `CNC(=O)[C@@H](NC(=O)[C@@H]1CN(C(=O)c2cnn(Cc3ccccc3)c2)CC12CN(C(=O)[C@H]1CC1(C)C)C2)[C@@H](C)OC[C@H]1CC[C@@H](O)CC1` [I-424], the IC50 is more than 10 µM in the assay with Kuramochi cells and more than 20 µM in assay [1].
With `CNC(=O)[C@@H](NC(=O)[C@@H]1CN(C(=O)c2cnn(Cc3ccccc3)c2)CC12CN(C(=O)[C@H]1CC1(C)C)C2)[C@@H](C)OCC1CCCCC1` [I-123A, (S)-6-(1-benzyl-1H-pyrazole-4-carbonyl)-N-((2S,3R)-3-(cyclohexylmethoxy)-1-(methylamino)-1-oxobutan-2-yl)-2-((S)-2,2-dimethylcyclopropane-1-carbonyl)-2,6-diazaspiro[3.4]octane-8-carboxamide], the results for the IC50 (in the assay on Kuramochi cells; in assay [1]) were not above 0.5 µM and 0.5 to 5 µM, respectively.
Taken in the same sequence, the figures for `COC[C@H]1CCCN(C(=O)[C@@H](NC(=O)[C@@H]2CN(C(=O)c3cncs3)CC23CN(C(=O)[C@H]2CC2(C)C)C3)[C@@H](C)OC(C)C2CCCCC2)C1` (some centres unmarked) [I-374] were 0.5 to 5 µM and 0.5 to 5 µM.
As for `CC1(C)C[C@@H]1C(=O)N1CC2(CN(C(=O)c3cnn(Cc4ccccc4)c3)C[C@H]2C(=O)NCc2nnc[nH]2)C1` [I-191A], the IC50 with Kuramochi cells is more than 10 µM; in assay [1], more than 20 µM.
As for `COC[C@H]1CCCN(C(=O)[C@@H](NC(=O)[C@@H]2CN(C(=O)c3cncs3)CC23CN(C(=O)[C@H]2CC2(C)C)C3)[C@@H](C)O[C@@H](C)C2CCCCC2)C1` [I-369], the IC50 (in the assay on Kuramochi cells; in assay [1]) was 0.5 to 5 µM each time.
Take `C[C@@H](OCC1CCCCC1)[C@H](NC(=O)C1CN(C(=O)c2cncs2)CC12CN(C(=O)[C@H]1CC1(C)C)C2)C(=O)N1CCC[C@@H](CO)C1` (some centres unmarked) [I-197]: the values for the IC50 (in the assay with Kuramochi cells; in assay [1]) were 0.5 to 5 µM and not above 0.5 µM, respectively.
Turning to `CC(O[C@H](C)[C@H](NC(=O)[C@@H]1CN(C(=O)c2cncs2)CC12CN(C(=O)[C@H]1CC1(C)C)C2)C(=O)N1CCC(F)(F)CC1)C1CCC(F)(F)CC1` (some centres unmarked) [I-361], the IC50 (in the assay with Kuramochi cells; in assay [1]) was 0.5 to 5 µM in each case.
Regarding `CNC(=O)[C@@H](NC(=O)[C@@H]1CN(C(=O)c2cncs2)CC12CN(CC1CCOC1)C2)[C@@H](C)OCC12CCC(CC1)OC2` (some centres unmarked) [I-345], the figures for the IC50 (with Kuramochi cells; in assay [1]) were more than 10 µM and more than 20 µM, respectively.
In the same order, the values of `CC1(C)C[C@@H]1C(=O)N1CC2(CN(C(=O)c3cnn(Cc4ccccc4)c3)C[C@H]2C(=O)NCc2cccnn2)C1` [I-359] are more than 10 µM and more than 20 µM.
Turning to `C[C@@H](OCC1CCCCC1)[C@@H](CO)NC(=O)[C@H]1CN(C(=O)c2cnn(Cc3ccccc3)c2)CC12CN(C(=O)[C@H]1CC1(C)C)C2` [I-135B], the IC50 was more than 10 µM in the assay on Kuramochi cells and 5 to 20 µM in assay [1].
With `C[C@@H](OCC1CCCCC1)[C@H](NC(=O)[C@@H]1CN(C(=O)c2cn[nH]c2)CC12CN(C(=O)[C@H]1CC1(C)C)C2)C(=O)N1CCC(F)(F)CC1` [I-154A], the IC50 (with Kuramochi cells; in assay [1]) was 0.5 to 5 µM in each case.
Turning to `CNC(=O)[C@@H](NC(=O)[C@@H]1CN(C(=O)Cc2cn[nH]c2)CC12CN(C(=O)[C@H]1CC1(C)C)C2)[C@@H](C)OCc1ccccc1` [I-358], the IC50 in the assay on Kuramochi cells was more than 10 µM; in assay [1], more than 20 µM.
In the same order, the values of `C[C@@H](OCC1CCCCC1)[C@H](NC(=O)[C@@H]1CN(C(=O)c2cn[nH]c2)CC12CN(C(=O)[C@H]1CC1(C)C)C2)C(=O)N1CCCCC1` [I-151A] are 0.5 to 5 µM and 0.5 to 5 µM.
In the same order, the values of `CNC(=O)C(NC(=O)[C@@H]1CN(C(=O)c2cncs2)CC12CN(C(=O)[C@H]1CC1(C)C)C2)C(O)Cc1ccccc1` (some centres unmarked) [I-356] are more than 10 µM and more than 20 µM.
